From ChEMBL document CHEMBL1201862, “PubChem BioAssay data set” (2004)
Structures can show the parent of a compound that is named as a salt. Blank lines part the entries; values can stand above or below the compound they belong to. Calls of active or inactive are those of the source.

Experiments:
[1] = molecular target: Large T antigen (Simian virus 40, UniProt P03070); type: functional, Betapolyomavirus macacae;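 also: Confirmatory-stage PubChem screen for compounds that inhibit SV40 T antigen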
[2] = molecular target: T1, Protein skinhead-1 (Caenorhabditis elegans, UniProt P34707); type: functional
T1 sequence (P34707 whole entry): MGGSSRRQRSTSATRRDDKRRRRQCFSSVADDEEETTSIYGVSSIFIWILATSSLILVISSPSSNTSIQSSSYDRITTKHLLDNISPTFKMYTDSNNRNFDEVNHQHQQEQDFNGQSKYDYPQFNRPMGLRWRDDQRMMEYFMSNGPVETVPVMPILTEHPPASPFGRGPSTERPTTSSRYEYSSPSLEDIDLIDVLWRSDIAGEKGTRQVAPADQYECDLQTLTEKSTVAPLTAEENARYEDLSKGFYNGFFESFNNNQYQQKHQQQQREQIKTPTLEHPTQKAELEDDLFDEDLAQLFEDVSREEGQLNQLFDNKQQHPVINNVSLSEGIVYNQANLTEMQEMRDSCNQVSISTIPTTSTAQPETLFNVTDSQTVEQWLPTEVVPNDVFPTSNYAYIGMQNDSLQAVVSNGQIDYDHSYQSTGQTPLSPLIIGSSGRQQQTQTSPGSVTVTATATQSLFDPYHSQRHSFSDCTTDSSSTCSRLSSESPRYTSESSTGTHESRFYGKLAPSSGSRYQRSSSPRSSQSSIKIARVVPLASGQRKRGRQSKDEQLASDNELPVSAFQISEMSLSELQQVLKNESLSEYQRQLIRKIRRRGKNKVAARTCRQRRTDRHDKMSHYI

[3] = system: P388/ADR; test: cells; type: functional; conditions: Mus musculus
[4] = molecular target: Cytochrome P450 2C9 (Homo sapiens, UniProt P11712)
[5] = molecular target: Cytochrome P450 2C19 (Homo sapiens, UniProt P33261); test: Cytochrome panel assay with activity outcomes. Panel member name: p450-cyp2c19 Compounds with AC50 equal or less than 10 uM are considered active; type: functional; conditions: read-out: AC50
[6] = molecular target: FAD-linked sulfhydryl oxidase ALR (Homo sapiens, UniProt P55789); test: inhibitors of human ALR sulfhydryl oxidase, dose response, biochemical, H2O2 detection, luminescence, cherry-pick (AID 493248)
[7] = HEp-2 cell cytotoxicity, dose response, cytotoxicity control for RSV inhibitor project, HTS (AID 2410); type: functional; conditions: human respiratory syncytial virus
[8] = cells; type: functional, cell-based
[9] = cells; type: functional, cell-based; remark: listed apart in the source
[10] = HepG2 cell cytotoxicity, dose response, cytotoxicity control for Shn3 inhibitor project, CellTiter-Glo, cherry-picked (AID 624134); type: functional, cell-based
[11] = control 3'UTR Renilla luciferase suppression, dose response, counter-screen for Shn3 inhibitor project, cell-based, Clone20-Shn3RL, cherry-picked (AID 624133); type: functional
[12] = Shn3 3'UTR reporter inhibitors, dose response, cell-based, Clone20 osteoblasts, firefly luciferase, cherry-picked (AID 624132); type: functional;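 also: firefly luciferase luminescence from reporter carrying the Shn3 3'UTR in osteoblasts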
[13] = molecular target: T2, Zinc finger protein mex-5 (Caenorhabditis elegans, UniProt Q9XUB2); test: MEX-5/TCR-2 RNA interaction inhibitors, dose response, biochemical, C. elegans, fluorescence polarization (AID 1960)
T2 sequence (Q9XUB2 whole entry): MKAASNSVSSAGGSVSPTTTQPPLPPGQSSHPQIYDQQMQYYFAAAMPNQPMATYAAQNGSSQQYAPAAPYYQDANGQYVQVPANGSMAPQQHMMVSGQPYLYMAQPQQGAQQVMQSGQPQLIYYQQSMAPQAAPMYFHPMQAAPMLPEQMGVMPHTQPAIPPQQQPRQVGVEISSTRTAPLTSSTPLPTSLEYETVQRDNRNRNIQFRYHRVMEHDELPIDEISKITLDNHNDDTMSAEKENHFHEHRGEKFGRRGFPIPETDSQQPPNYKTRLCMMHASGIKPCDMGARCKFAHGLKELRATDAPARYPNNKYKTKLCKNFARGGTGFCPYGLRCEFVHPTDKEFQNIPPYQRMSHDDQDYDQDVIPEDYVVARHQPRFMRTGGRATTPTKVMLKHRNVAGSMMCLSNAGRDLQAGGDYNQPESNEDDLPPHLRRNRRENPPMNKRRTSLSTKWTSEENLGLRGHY

[14] = molecular target: T3, RNA-binding protein pos-1 (Caenorhabditis elegans, UniProt G5EF15); test: inhibitors of POS-1/mex-3 RNA binding, dose response, biochemical, fluorescence polarization (AID 1964);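 also: purified POS-1 fused to maltose binding protein made in E. coli; potency of compounds blocking POS-1 binding to fluorescent RNA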
T3 sequence (G5EF15 whole entry): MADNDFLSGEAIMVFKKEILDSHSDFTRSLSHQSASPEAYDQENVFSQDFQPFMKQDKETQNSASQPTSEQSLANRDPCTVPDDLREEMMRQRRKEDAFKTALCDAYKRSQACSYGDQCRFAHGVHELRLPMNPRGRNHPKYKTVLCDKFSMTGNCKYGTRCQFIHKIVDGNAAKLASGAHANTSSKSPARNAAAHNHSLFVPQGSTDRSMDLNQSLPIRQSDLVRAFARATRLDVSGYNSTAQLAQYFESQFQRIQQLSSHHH

Cytochrome P450 2C9, sequence (P11712 whole entry): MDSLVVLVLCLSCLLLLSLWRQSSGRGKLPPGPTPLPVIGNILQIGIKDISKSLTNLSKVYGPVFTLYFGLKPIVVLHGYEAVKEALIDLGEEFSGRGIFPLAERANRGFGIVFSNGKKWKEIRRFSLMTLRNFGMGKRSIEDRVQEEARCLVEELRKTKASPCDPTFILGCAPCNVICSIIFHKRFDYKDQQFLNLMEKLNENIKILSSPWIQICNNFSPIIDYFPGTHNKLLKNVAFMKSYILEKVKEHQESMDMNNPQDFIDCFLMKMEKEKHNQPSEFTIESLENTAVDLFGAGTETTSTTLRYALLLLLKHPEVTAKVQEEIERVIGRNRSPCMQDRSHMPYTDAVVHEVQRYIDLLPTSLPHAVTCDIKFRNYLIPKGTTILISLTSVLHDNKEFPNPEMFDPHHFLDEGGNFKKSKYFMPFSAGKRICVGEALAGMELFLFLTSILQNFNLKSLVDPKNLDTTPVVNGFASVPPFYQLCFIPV
Large T antigen, sequence (P03070 whole entry): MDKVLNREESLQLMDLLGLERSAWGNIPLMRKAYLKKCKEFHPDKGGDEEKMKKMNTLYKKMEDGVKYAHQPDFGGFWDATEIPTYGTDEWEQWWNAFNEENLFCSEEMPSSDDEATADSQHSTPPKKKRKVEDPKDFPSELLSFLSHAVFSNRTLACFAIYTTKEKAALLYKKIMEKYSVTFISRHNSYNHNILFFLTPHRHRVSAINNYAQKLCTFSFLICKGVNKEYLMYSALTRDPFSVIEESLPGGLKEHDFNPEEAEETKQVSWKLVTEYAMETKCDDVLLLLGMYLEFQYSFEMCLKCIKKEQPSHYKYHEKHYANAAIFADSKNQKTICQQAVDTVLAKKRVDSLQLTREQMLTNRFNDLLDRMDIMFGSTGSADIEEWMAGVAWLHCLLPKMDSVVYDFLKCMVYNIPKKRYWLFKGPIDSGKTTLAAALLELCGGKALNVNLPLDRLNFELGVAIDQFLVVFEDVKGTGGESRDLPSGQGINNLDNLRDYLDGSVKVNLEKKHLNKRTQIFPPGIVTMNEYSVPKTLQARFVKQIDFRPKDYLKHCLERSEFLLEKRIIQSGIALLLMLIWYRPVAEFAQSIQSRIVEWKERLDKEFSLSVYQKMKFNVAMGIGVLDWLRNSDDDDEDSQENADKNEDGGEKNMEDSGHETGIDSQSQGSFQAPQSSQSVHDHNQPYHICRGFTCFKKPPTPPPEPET
FAD-linked sulfhydryl oxidase ALR, sequence (P55789 whole entry): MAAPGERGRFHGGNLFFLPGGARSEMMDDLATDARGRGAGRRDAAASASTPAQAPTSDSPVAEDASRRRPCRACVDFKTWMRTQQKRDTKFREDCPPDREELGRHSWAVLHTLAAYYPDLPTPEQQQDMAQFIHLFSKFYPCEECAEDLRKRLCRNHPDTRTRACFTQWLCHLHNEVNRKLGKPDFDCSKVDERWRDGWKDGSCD
Cytochrome P450 2C19, sequence (P33261 whole entry): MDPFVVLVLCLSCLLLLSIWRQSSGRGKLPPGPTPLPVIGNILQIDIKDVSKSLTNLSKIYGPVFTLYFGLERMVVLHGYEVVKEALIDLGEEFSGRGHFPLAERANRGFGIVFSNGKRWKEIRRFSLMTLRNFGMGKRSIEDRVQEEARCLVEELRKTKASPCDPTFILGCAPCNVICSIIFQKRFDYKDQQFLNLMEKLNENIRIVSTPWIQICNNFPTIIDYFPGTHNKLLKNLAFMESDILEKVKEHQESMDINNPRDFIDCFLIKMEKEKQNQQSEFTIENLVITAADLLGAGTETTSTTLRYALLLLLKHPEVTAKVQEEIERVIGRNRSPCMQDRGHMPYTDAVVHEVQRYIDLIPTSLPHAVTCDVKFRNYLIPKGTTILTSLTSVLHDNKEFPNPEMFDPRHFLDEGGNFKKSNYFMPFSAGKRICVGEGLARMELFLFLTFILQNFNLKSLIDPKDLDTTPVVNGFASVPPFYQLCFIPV

SMILES: ClCCN(CCCl)c1ccc(C=Cc2ccncn2)cc1
- IC50 [2]: > 100 µM (inactive)

SMILES: Cc1cc2c(c3oc(C4(C)OC4C4OC4C)cc(=O)c13)C(=O)c1c(O)c(C3CC(C)(N(C)C)C(O)C(C)O3)cc(C3CC(N(C)C)C(O)C(C)O3)c1C2=O (stereo unspecified)
- GI50 [3]: 0.0025 µM (active)

SMILES: Cc1cc(C(=O)N/N=C/c2cccc([N+](=O)[O-])c2)c(C)o1
- AC50 [4]: inconclusive
- AC50 [5]: 22.4 µM (inconclusive)

SMILES: COc1ccc(/C=N/NC(=O)c2ccoc2C)cc1O
- AC50 [6]: 1.2 µM (active)
- CC50 [7]: 18.5 µM (active)
- EC50 [8]: 6.49 µM (active)
- IC50 [1]: 9.6 µM (active)
- EC50 [9]: > 350 µM (not active)

SMILES: CCOC(=O)C(/C=N/c1ncccc1C)=C(/O)OCC
- AC50 [4]: inconclusive

SMILES: CCOc1ccc(CN(C)c2ccc(S(=O)(=O)N3CCN(C)CC3)cc2[N+](=O)[O-])cc1OC
- AC50 [10]: 43 µM (active)
- AC50 [11]: 5.91 µM (active)
- AC50 [12]: 3.38 µM (active)

SMILES: CC(C)NC(=N)NC(=N)Nc1ccc(Cl)cc1 [PROGUANIL HYDROCHLORIDE]
- AC50 [11]: 0.403 µM (active)
- AC50 [12]: 0.37 µM (active)

SMILES: CCOC(=O)c1c(C)[nH]c(C(=O)COC(=O)c2oc3ccc(OC)cc3c2C)c1C
- IC50 [2]: > 100 µM (inactive)

The next lines start with the values.

- IC50 [1]: 11.6 µM (active)
SMILES: O=C(CSc1cccc2cccnc12)N/N=C/c1ccc(O)cc1

- IC50 [1]: 9.01 µM (active)
SMILES: O=Cc1coc2c(ccc3ccccc32)c1=O

- IC50 [2]: > 100 µM (inactive)
SMILES: O=S(=O)(c1cccc2c(S(=O)(=O)N3CCCC3)cccc12)N1CCCC1

- IC50 [1]: 9.46 µM (active)
SMILES: O=C(O)[C@H]1CCCC[C@H]1C(=O)Nc1ccc(Nc2ccccc2)cc1

- IC50 [1]: 12.6 µM (active)
SMILES: COc1cc(/C=C/C(=O)OCC(=O)N2CC(=O)Nc3ccccc32)ccc1O

- AC50 [4]: inconclusive
SMILES: COC(=O)c1ccc(Cl)c(NC(=O)c2ccc(-c3ccccc3)cc2)c1

- EC50 [13]: 16.1 µM (active)
- EC50 [14]: 15.2 µM (active)
SMILES: N=c1c(C(=O)NC2CCCCC2)cc2c(=O)n3ccccc3nc2n1CCc1ccccc1

- EC50 [13]: 68 µM (active)
- EC50 [14]: 112 µM (active)
SMILES: Cc1ccc2[nH]c3c(c2c1)CN(C(=O)CN1CCN(C(=O)c2ccco2)CC1)CC3
